Reference: patent US4647687A, “Halogenated sulphides, process for their preparation and their use in microbicidal agents” (Bayer Aktiengesellschaft, priority 1983, dated 1987)
Values after ≈ are worked out from the molar mass of the structure shown. Like-named read-outs stand apart in the source and are kept apart here.

What was measured:
Coniophora puteana = assay: MIC against fungi, beerwort/peptone agar; settings: 28° C., 60 to 70% relative humidity, 2 weeks
[1] = tested on: microbes (bacteria, yeasts and moulds) isolated from microbially decayed cooling lubricant use dilutions; assay: Testing as a preservative for cooling lubricants; settings: 1% active compound in mineral oil cooling lubricant; 5% strength use dilutions contaminated daily for 3 months
Procedure: 1% of the active compound is added, as a preservative, to a cooling lubricant based on mineral oil. 5% strength use dilutions of the cooling lubricant are massively contaminated daily for 3 months with microbes (bacteria, yeasts and moulds) isolated from microbially decayed cooling lubricant use dilutions.

Sclerophoma pityophila = assay: MIC against fungi, beerwort/peptone agar; settings: 28° C., 60 to 70% relative humidity, 2 weeks
slime organisms = assay: Action against slime organisms (MIC in Allen's nutrient solution); type: cell-based; settings: 336 h, about 10^6 germs/ml, 3 weeks at room temperature
Chaetomium globosum = assay: MIC against fungi, beerwort/peptone agar; settings: 28° C., 60 to 70% relative humidity, 2 weeks
Aspergillus niger = assay: MIC against fungi, beerwort/peptone agar; settings: 28° C., 60 to 70% relative humidity, 2 weeks
Trichoderma viride = assay: MIC against fungi, beerwort/peptone agar
Staphylococcus aureus = assay: Action against bacteria (MIC in broth agar); type: cell-based; settings: 28° C., 60 to 70% relative humidity, 2 weeks
Lentinus tigrinus = assay: MIC against fungi, beerwort/peptone agar; settings: 28° C., 60 to 70% relative humidity, 2 weeks
Aureobasidium pullulans = assay: MIC against fungi, beerwort/peptone agar
Eschercihia coli = assay: Action against bacteria (MIC in broth agar); type: cell-based; settings: Escherichia coli, 28° C., 60 to 70% relative humidity, 2 weeks
Polyporus versicolor = assay: MIC against fungi, beerwort/peptone agar
Penicillium glaucum = assay: MIC against fungi, beerwort/peptone agar; settings: 28° C., 60 to 70% relative humidity, 2 weeks
Alternaria tenuis = assay: MIC against fungi, beerwort/peptone agar; settings: 28° C., 60 to 70% relative humidity, 2 weeks
[2] = 28° C., 60 to 70% relative humidity, 2 weeks

MIC (Sclerophoma pityophila; Sydowia polyspora, 336 h) [mg/L]	MIC (slime organisms) [mg/L]	MIC (Chaetomium globosum; 336 h) [mg/L]	MIC (Aspergillus niger; 336 h) [mg/L]	MIC (Trichoderma viride; 336 h) [mg/L]	MIC (Staphylococcus aureus; 336 h, read-out: MIC) [mg/L]	MIC (Lentinus tigrinus; 336 h) [mg/L]	MIC (Aureobasidium pullulans; 336 h) [mg/L]	MIC (Eschercihia coli; 336 h, read-out: MIC) [mg/L]	MIC (Polyporus versicolor; Trametes versicolor, 336 h) [mg/L]	MIC (Penicillium glaucum; Penicillium, 336 h) [mg/L]	MIC (Coniophora puteana) [mg/L]	MIC (Penicillium glaucum) [mg/L]	MIC (Alternaria tenuis) [mg/L]	Structure (SMILES)	also measured
0.5 (≈ 2.09 µM)	0.35 (≈ 1.46 µM)	2 (≈ 8.35 µM)	2 (≈ 8.35 µM)	10 (≈ 41.8 µM)	10 (≈ 41.8 µM)	0.5 (≈ 2.09 µM)	5 (≈ 20.9 µM)	20 (≈ 83.5 µM)	1 (≈ 4.18 µM)	1 (≈ 4.18 µM)				N#CC(Cl)=CSC(Cl)=C(Cl)C#N [Example 5, 1,2-dichloro-2-cyano-vinyl 2-chloro-2-cyano-vinyl sulphide]	MIC (Coniophora puteana; 336 h): < 0.1 mg/L; state of the use dilutions at the end of the testing period [1]: free from germs; MIC (Alternaria tenuis; Alternaria alternata, 336 h): 20 mg/L (≈ 83.5 µM)
		50 (≈ 220 µM)	50 (≈ 220 µM)		500 (≈ 2200 µM)			200 (≈ 878 µM)		35 (≈ 154 µM)				N#CC(Cl)=CS(=O)(=O)c1ccccc1 [α-Chloro-β-phenylsulphonyl-acrylonitrile, α-Chloro-β-phenylsulphonyl acrylonitrile, reference compound]	
											0.5 (≈ 1.83 µM)	2.5 (≈ 9.13 µM)	0.75 (≈ 2.74 µM)	N#CC(Cl)=C(Cl)SC(Cl)=C(Cl)C#N [Example 9, bis-(1,2-dichloro-2-cyano-vinyl) sulphide]	MIC (Sclerophoma pityophila): 0.75 mg/L (≈ 2.74 µM); MIC (Chaetomium globosum): 2.5 mg/L (≈ 9.13 µM); MIC (Aspergillus niger): 2.5 mg/L (≈ 9.13 µM); MIC (Trichoderma viride; [2]): 10 mg/L (≈ 36.5 µM); MIC (Staphylococcus aureus): 10 mg/L (≈ 36.5 µM); MIC (Lentinus tigrinus): 1 mg/L (≈ 3.65 µM); MIC (Aureobasidium pullulans; [2]): 1 mg/L (≈ 3.65 µM); MIC (Eschercihia coli): 25 mg/L (≈ 91.3 µM); MIC (Polyporus versicolor; Polyporus versicolor, 28° C., 60 to 70% relative humidity, 2 weeks): 1 mg/L (≈ 3.65 µM)
	0.15 (≈ 0.869 µM)													N#CC=C(Cl)SCCC#N [Example 1, 1-chloro-2-cyanovinyl 2-cyano-ethyl sulphide]	
20 (≈ 96.6 µM)	2 (≈ 9.66 µM)	< 20	< 20		35 (≈ 169 µM)			200 (≈ 966 µM)						N#CCCSC(Cl)=C(Cl)C#N [Example 2, 1,2-dichloro-2-cyano-vinyl 2-cyano-ethyl sulphide]	
0.5 (≈ 1.83 µM)		2 (≈ 7.3 µM)	2 (≈ 7.3 µM)	10 (≈ 36.5 µM)	< 20	0.5 (≈ 1.83 µM)	1 (≈ 3.65 µM)	50 (≈ 183 µM)	1 (≈ 3.65 µM)		< 0.1	1 (≈ 3.65 µM)	2 (≈ 7.3 µM)	N#CC(Cl)=C(Cl)SC(Cl)=C(Cl)C#N [Example 8, bis-(1,2-dichloro-2-cyano-vinyl) sulphide]	
